Laboratory results taken from patent US8530663B2, “1-(2-phenoxymethylheteroaryl)piperidine and piperazine compounds” (Theravance, Inc., priority 2010, dated 2013).
Marks after values point to notes of the source that are not given here.

What was measured:
[1] = target: T1, hNET (Homo sapiens, UniProt P23975); assay: hNET membrane radioligand binding assay (3H-nisoxetine); settings: hNET membranes, 1.0 nM 3H-nisoxetine; for Ki: read-out: NET pKi (converted)
T1 construct: expressed in transfected cells; host or cells: HEK-293
Protocol: (§1) Membrane radioligand binding assays were used to measure inhibition of labeled ligand (^3H-citalopram or ^3H-nisoxetine or ^3H-WIN35428) binding to membranes prepared from cells expressing the respective human recombinant transporter (hSERT or hNET or hDAT) in order to determine the pKi values of test compounds at the transporters.
(§2) Recombinant human embryonic kidney (HEK-293) derived cell lines stably transfected with hSERT or hNET, respectively, were grown in DMEM medium supplemented with 10% dialyzed FBS (for hSERT) or FBS (for hNET), 100 μg/ml penicillin, 100 μg/ml streptomycin, 2 mM L-glutamine and 250 μg/ml of the aminoglycoside antibiotic G418, in a 5% CO2 humidified incubator at 37° C. When cultures reached 80% confluence, the cells were washed thoroughly in PBS (without Ca^2+ and Mg^2+) and lifted with 5 mM EDTA in PBS. Cells were pelleted by centrifugation, resuspended in lysis buffer (10 mM Tris-HCl, pH7.5 containing 1 mM EDTA), homogenized, pelleted by centrifugation, then resuspended in 50 mM Tris-HCl, pH 7.5 and 10% sucrose at 4° C. Protein concentration of the membrane suspension was determined using a Bio-Rad Bradford Protein Assay kit. Membranes were snap frozen and stored at −80° C. Chinese hamster ovary membranes expressing hDAT (CHO-DAT) were purchased from PerkinElmer and stored at −80° C.
(§3) Binding assays were performed in a 96-well assay plate in a total volume of 200 μL assay buffer (50 mM Tris-HCl, 120 mM NaCl, 5 mM KCl, pH 7.4) with 0.5, 1, and 3 μg membrane protein, for SERT, NET and DAT, respectively.
(§4) Stock solutions (10 mM in DMSO) of test compound were prepared and serial dilutions made using Dilution Buffer (50 mM Tris-HCl, 120 mM NaCl, 5 mM KCl, pH 7.4, 0.1% BSA, 400 μM ascorbic acid).
(§5) Following a 60 minute incubation at 22° C. (or a period sufficient to reach equilibrium), the membranes were harvested by rapid filtration over a 96-well UniFilter GF/B plate, pretreated with 0.3% polyethyleneimine, and washed 6 times with 300 μl wash buffer (50 mM Tris-HCl, 0.9% NaCl, pH 7.5 at 4° C.). Plates were dried overnight at room temperature, ˜45 μl of MicroScint™-20 (Perkin Elmer) added and bound radioactivity quantitated via liquid scintillation spectroscopy. Inhibition curves and saturation isotherms were analyzed using GraphPad Prism Software package (GraphPad Software, Inc., San Diego, Calif.). IC50 values were generated from concentration response curves using the Sigmoidal Dose Response (variable slope) algorithm in Prism GraphPad. Kd and Bmax values for the radioligand were generated from saturation isotherms using the Saturation Binding Global Fit algorithm in Prism GraphPad. pKi (negative decadic logarithm of Ki) values for test compounds were calculated from the best-fit IC50 values, and the Kd value of the radioligand, using the Cheng-Prusoff equation (Cheng & Prusoff (1973) Biochem. Pharmacol. 22(23):3099-3108): Ki=IC50/(1+[L]/Kd), where [L]=concentration radioligand.

[2] = target: T2, hSERT (Homo sapiens, UniProt P31645); assay: fluorescence-based serotonin reuptake assay (Tsuruda et al. 2010; data with asterisk); assay type: cell-based; settings: serotonin reuptake inhibition, fluorescence-based assay (data indicated by an asterisk); for IC50: read-out: SERT pIC50 (converted)
T2 construct: expressed in transfected cells; host or cells: HEK-293

[3] = target: T2, hSERT; assay: hSERT membrane radioligand binding assay (3H-citalopram); settings: hSERT membranes, 1.0 nM 3H-citalopram; for Ki: read-out: SERT pKi (converted)
Protocol: as §1, §2, §3, §4, §5

[4] = target: T1, hNET; assay: fluorescence-based norepinephrine reuptake assay (Tsuruda et al. 2010; data with asterisk); assay type: cell-based; settings: norepinephrine reuptake inhibition, fluorescence-based assay (data indicated by an asterisk); for IC50: read-out: NET pIC50 (converted)
[5] = target: T1, hNET; assay: hNET neurotransmitter uptake assay (3H-NE); assay type: cell-based; settings: norepinephrine reuptake inhibition, 3H-NE uptake, HEK-293 hNET cells (no asterisk); for IC50: read-out: NET pIC50 (converted)
Protocol: (§6) Neurotransmitter uptake assays were used to measure inhibition of ^3H-serotonin (^3H-5-HT), ^3H-norepinephrine (^3H-NE), and ^3H-dopamine (^3H-DA) uptake into cells expressing the respective transporter (hSERT, hNET or hDAT) in order to determine the pIC50 values of test compounds at the transporters.
(§7) HEK-293 derived cell lines stably-transfected with hSERT, hNET, or hDAT, respectively, were grown in DMEM medium supplemented with 10% dialyzed FBS (for hSERT) or FBS (for hNET and hDAT), 100 μg/ml penicillin, 100 μg/ml streptomycin, 2 mM L-glutamine and 250 μg/ml of the aminoglycoside antibiotic G418 (for hSERT and hNET) or 800 ug/ml (for hDAT), in a 5% CO2 humidified incubator at 37° C. When cultures reached 80% confluence, the cells were washed thoroughly in PBS (without Ca^2+ and Mg^2+) and lifted with 5 mM EDTA in PBS. Cells were harvested by centrifugation at 1100 rpm for 5 minutes, washed once by resuspension in PBS, then centrifuged. The supernatant was discarded and the cell pellet resuspended, by gentle trituration, in room temperature Krebs-Ringer bicarbonate buffer containing HEPES (10 mM), CaCl2 (2.2 mM), ascorbic acid (200 μM) and pargyline (200 μM), pH 7.4. The final concentration of cells in the cell suspension was 7.5×10^4 cells/ml, 1.25×10^5 cells/ml, and 5.0×10^4 cells/ml for SERT, NET, and DAT cell lines, respectively.
(§8) Stock solutions (10 mM in DMSO) of test compound were prepared and serial dilutions prepared using 50 mM Tris-HCl, 120 mM NaCl, 5 mM KCl, pH 7.4, 0.1% BSA, 400 μM ascorbic acid. Test compounds were incubated for 30 minutes at 37° C. with the respective cells, prior to addition of radiolabeled neurotransmitter, ^3H-5-HT (20 nM final concentration), ^3H-NE (50 nM final concentration), or ^3H-DA (100 nM final concentration).
(§9) Following a 10 minute incubation, at 37° C., with radioligand, the cells were harvested by rapid filtration over a 96-well UniFilter GF/B plate, pretreated with 1% BSA, and washed 6 times with 650 μl wash buffer (ice cold PBS). Plates were dried overnight at 37° C., ˜45 μl of MicroScint™-20 (Perkin Elmer) added and incorporated radioactivity quantitated via liquid scintillation spectroscopy. Inhibition curves were analyzed using GraphPad Prism Software package (GraphPad Software, Inc., San Diego, Calif.). IC50 values were generated from concentration response curves using the Sigmoidal Dose Response (variable slope) algorithm in Prism GraphPad.

[6] = target: T2, hSERT; assay: hSERT neurotransmitter uptake assay (3H-5-HT); assay type: cell-based; settings: serotonin reuptake inhibition, 3H-5-HT uptake, HEK-293 hSERT cells (no asterisk); for IC50: read-out: SERT pIC50 (converted)
Protocol: as §6, §7, §8, §9

T2 sequence (P31645 whole entry): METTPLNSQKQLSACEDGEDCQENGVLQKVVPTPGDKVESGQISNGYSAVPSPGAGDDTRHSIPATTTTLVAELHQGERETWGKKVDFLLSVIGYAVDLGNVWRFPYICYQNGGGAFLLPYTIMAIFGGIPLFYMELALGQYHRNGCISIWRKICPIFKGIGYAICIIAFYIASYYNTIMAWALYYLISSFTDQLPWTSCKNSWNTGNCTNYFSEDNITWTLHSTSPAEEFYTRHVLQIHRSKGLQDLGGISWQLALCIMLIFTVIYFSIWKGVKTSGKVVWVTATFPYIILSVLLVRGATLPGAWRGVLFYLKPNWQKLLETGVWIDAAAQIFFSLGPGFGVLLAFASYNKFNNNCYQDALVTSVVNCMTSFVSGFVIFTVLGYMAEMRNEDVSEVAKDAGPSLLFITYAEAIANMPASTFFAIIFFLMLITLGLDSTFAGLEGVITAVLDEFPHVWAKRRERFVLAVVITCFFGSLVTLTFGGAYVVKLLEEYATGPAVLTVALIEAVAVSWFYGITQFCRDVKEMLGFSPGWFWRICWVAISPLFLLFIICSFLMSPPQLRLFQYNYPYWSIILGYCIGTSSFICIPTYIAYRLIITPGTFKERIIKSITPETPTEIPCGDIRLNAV
T1 sequence (P23975 whole entry): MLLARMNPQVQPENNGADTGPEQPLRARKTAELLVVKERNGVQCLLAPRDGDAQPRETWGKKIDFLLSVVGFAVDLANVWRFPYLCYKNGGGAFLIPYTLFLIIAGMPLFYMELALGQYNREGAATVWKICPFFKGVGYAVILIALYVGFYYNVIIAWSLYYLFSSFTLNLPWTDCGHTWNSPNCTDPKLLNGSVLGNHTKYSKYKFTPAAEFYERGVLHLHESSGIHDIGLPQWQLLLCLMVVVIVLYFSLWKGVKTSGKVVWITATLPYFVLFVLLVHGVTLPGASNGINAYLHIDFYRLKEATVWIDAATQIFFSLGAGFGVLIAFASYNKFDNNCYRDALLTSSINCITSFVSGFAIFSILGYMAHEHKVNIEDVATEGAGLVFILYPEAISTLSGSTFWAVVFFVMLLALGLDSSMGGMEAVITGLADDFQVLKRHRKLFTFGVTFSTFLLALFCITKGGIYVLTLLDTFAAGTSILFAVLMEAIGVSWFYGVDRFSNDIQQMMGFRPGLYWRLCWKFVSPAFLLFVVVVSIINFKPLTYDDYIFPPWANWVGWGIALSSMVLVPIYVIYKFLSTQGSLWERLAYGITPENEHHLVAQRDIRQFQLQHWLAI

Fc1ccc(F)c(OCc2ncccc2C2CCNCC2)c1Cl [Example 2-9]
NET pKi [1]: ≧6.0 | SERT pIC50 [2]: ≧7.0* | SERT pKi [3]: ≧7.0 | NET pIC50 [4]: ≧7.0*

Clc1cccc(OCc2sccc2C2CCNCC2)c1 [Example 24, 4-[2-(3-Chlorophenoxymethyl)thiophen-3-yl]piperidine]
Ki [1]: ≤ 100 nM | IC50 [2]: ≤ 100 nM | Ki [3]: ≤ 100 nM | IC50 [4]: ≤ 100 nM

Fc1cc(F)c(OCc2ccncc2C2CCNCC2)c(F)c1 [Example 9, 4-(2,4,6-Trifluorophenoxymethyl)-1′,2′,3′,4′,5′,6′-hexahydro[3,4]bipyridinyl]
Ki [1]: ≤ 100 nM | IC50 [5]: ≤ 100 nM | IC50 [6]: ≤ 100 nM | Ki [3]: ≤ 100 nM

Fc1cc(F)c(OCc2ccsc2C2CCNCC2)c(F)c1 [Example 31-3]
NET pKi [1]: ≧7.0 | SERT pIC50 [2]: ≧7.0* | SERT pKi [3]: ≧7.0 | NET pIC50 [4]: ≧7.0*

Clc1cccc(Cl)c1OCc1occc1C1CCNCC1 [Example 18-1]
SERT pIC50 [2]: ≧7.0* | NET pIC50 [4]: ≧4.5*

Clc1cccc(OCc2ccoc2C2CCNCC2)c1 [Example 21, 4-[3-(3-Chlorophenoxymethyl)furan-2-yl]piperidine]
IC50 [2]: ≤ 100 nM | IC50 [4]: ≤ 100 nM

Fc1cc(F)c(OCc2cccnc2C2CCNCC2)c(F)c1 [Example 13, 3-(2,4,6-Trifluorophenoxymethyl)-1′,2′,3′,4′,5′,6′-hexahydro[2,4]bipyridinyl]
Ki [1]: ≤ 100 nM | IC50 [5]: ≤ 100 nM | IC50 [6]: ≤ 100 nM | Ki [3]: ≤ 100 nM

Fc1cc(F)c(OCc2cscc2C2CCNCC2)c(F)c1 [Example 28-3]
NET pKi [1]: ≧7.0 | NET pIC50 [5]: ≧7.0 | SERT pIC50 [6]: ≧7.0 | SERT pKi [3]: ≧7.0

Clc1cccc(OCc2occc2C2CCNCC2)c1 [Example 18-2]
SERT pIC50 [2]: ≧7.0* | NET pIC50 [4]: ≧7.0*

Fc1cccc(F)c1OCc1cscc1C1CCNCC1 [Example 27, 4-[4-(2,6-Difluorophenoxymethyl)thiophen-3-yl]piperidine]
Ki [1]: ≤ 100 nM | IC50 [5]: ≤ 100 nM | IC50 [6]: ≤ 100 nM | Ki [3]: ≤ 100 nM

Fc1cccc(Cl)c1OCc1ccncc1C1CCNCC1 [Example 10-4]
NET pKi [1]: ≧7.0 | NET pIC50 [5]: ≧7.0 | SERT pIC50 [6]: ≧7.0 | SERT pKi [3]: ≧7.0

Fc1cccc(F)c1OCc1ccoc1C1CCNCC1 [Example 22-2]
SERT pIC50 [2]: ≧5.0* | NET pIC50 [4]: ≧6.0*

c1ccc(OCc2occc2C2CCNCC2)cc1 [Example 17, 4-(2-Phenoxymethylfuran-3-yl)piperidine]
IC50 [2]: ≤ 100 nM | IC50 [4]: ≤ 100 nM

Clc1cccc(OCc2ccsc2C2CCNCC2)c1 [Example 31-2]
NET pKi [1]: ≧7.0 | SERT pIC50 [2]: ≧7.0* | SERT pKi [3]: ≧7.0 | NET pIC50 [4]: ≧7.0*
